The source of these data is patent EP1117420B1, “PHARMACEUTICAL COMPOSITIONS BASED ON ALPHA-CYCLODEXTRIN FOR THE ORAL ADMINISTRATION OF LH-RH ANALOGUES” (LABORATOIRE THERAMEX S.A., priority 1998, dated 2000).

For test [1], the target named is T1, LH-RH receptors (Rattus norvegicus, UniProt P30969).
T1 sequence (P30969 1-327): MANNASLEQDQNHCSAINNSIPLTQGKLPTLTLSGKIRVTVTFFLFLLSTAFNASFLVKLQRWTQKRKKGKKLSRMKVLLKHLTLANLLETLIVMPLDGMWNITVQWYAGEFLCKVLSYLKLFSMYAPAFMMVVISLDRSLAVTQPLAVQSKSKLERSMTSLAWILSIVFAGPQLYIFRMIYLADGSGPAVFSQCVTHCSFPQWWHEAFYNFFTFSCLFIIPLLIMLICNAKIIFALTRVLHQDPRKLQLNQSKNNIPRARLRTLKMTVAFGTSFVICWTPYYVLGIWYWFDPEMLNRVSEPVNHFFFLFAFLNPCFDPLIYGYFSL
The test is described as follows: stimulation of testosterone secretion after oral gavage (plasma testosterone by radioimmunoassay). The class given is in vivo, Sprague-Dawley rats. Also noted: from tissue; host or cells: pituitary of living adult male Sprague-Dawley rats (in vivo). Conditions: for total plasma testosterone (nmol/l) (m ± sem): 2 nmoles/rat by oral gavage, blood 2 hours after administration, male rats; for stimulation of testosterone secretion: 5 Ng/kg oral, 2 hours, Figure 3. As for the experimental part:
For screening purposes, blood samples were drawn 2 hours after oral administration of a common dose of 2 nmoles/rat of LH-RH peptide agonists in an aqueous solution containing 10 or 100 mM of α-CD (Tables 1 and 2; Figures 1, 4 and 6). […] Total plasma testosterone (Diagnostic System Laboratories) and LH (Amersham Pharmacia Biotech) determinations were performed by radioimmunoassay. In screening 2-hour experiments, each group comprised between 6 and 8 rats; each time point of the kinetic study was studied on four animals.
All α-CD derivatives were purchased from Cyclolab (Budapest, Hungary).
(§1) Then, the α-CD solution was added to fill the flask up to 10 ml to make a 2 nmol/ml solution of which 1ml was administered by oral gavage to each rat.
After overnight magnetic stirring at room temperature, each solution was given to rats by oral gavage in a 4 ml/kg volume to administer the same dose of 5 µg/kg of example 2 without or with increasing concentrations of α-CD.

Test [2] concerns the target T1, LH-RH receptors. The test is described as follows: stimulation of LH secretion after oral gavage (plasma LH by radioimmunoassay). The class given is in vivo, Sprague-Dawley rats. Also noted: from tissue; host or cells: pituitary of living adult male Sprague-Dawley rats (in vivo). As to conditions: 2 nmoles/rat by oral gavage, blood 2 hours after administration, male rats. As for the experimental part:
[…] […] Total plasma testosterone (Diagnostic System Laboratories) and LH (Amersham Pharmacia Biotech) determinations were performed by radioimmunoassay. In screening 2-hour experiments, each group comprised between 6 and 8 rats; each time point of the kinetic study was studied on four animals.
Two hours after administration, plasma LH levels were measured on eight rats per dose group (Figure 7).
as §1

Test [3] has as its target T1, LH-RH receptors. The test is described as follows: inhibition of ovulation by oral administration (ova in oviduct on day of expected estrus). The class given is in vivo, Wistar rats. Also noted: from tissue; host or cells: pituitary of living adult female Wistar rats (in vivo). As for the experimental part: The peptides according to the general formula (I') exert an antagonist activity upon the LH-RH receptors in vivo, resulting in particular in the inhibition of ovulation.
The influence of α-, β- and γ-CD was tested on the activity of antide (an example of LH-RH peptide antagonist) when orally admininisted by gavage to normally cycling adult female Wistar rats between 1:30 and 3:00 p.m. on the day of proestrus, after at least two full regular estrous cycles as monitored by daily vaginal smears. The antiovulatory efficacy was checked the next morning, on the day of expected estrus, by looking for ova in the oviduct of treated females. The presence of at least one ovum attested that some degree of spontaneous ovulation did occur, and only the total absence of ovum was considered as effective LH-RH antagonist-induced inhibition of ovulation. Antide was solubilized in a vehicle consisting of 20% (vol/vol) propylene glycol in water already containing […], to which 10% (wt/vol) of either α-, β- or γ-CD was then added.
Each 5 mg powder vial of antide (from Bachem, Bubendorf, Switzerland) containing 4.2434 mg net peptide was dissolved in a mixture of 2.122 ml propylene glycol with 8.487 ml water containing 0.1% bovine albumin. To each 10.609 ml solution of antide (400 µg/ml), 1.061 g of either α-, β- or γ-CD was directly added to obtain a 10% concentration. Each female rat received the same volume of 1 ml of test formulation by gavage.
The same volume of administration was used for the doses of 200 and 600 µg/rat.

Setting [4] is: without α-CD (standard aqueous vehicle).
The mark [5] stands for this setting: vehicle + α-CD (10%), antide 200 µg/rat p.o.
The mark [6] stands for this setting: vehicle + α-CD (10%), antide 400 µg/rat p.o.
[7] abbreviates: vehicle + α-CD (10%), antide 600 µg/rat p.o.
Where [8] appears, read: vehicle + β-CD (10%), antide 400 µg/rat p.o.
Where [9] appears, read: vehicle + γ-CD (10%), antide 400 µg/rat p.o.
Where [10] appears, read: vehicle only, antide 200 µg/rat p.o.
Where [11] appears, read: vehicle only, antide 400 µg/rat p.o.
[12] abbreviates: vehicle only, antide 600 µg/rat p.o.

As to `CCNC(=O)[C@@H]1CCCN1C(=O)[C@H](CCCNC(=N)N)NC(=O)[C@H](CC(C)(C)C)NC(=O)[C@@H](Cc1ccccc1)NC(=O)[C@H](Cc1ccc(O)cc1)NC(=O)[C@H](CO)NC(=O)[C@H](Cc1c[nH]c2ccccc12)NC(=O)[C@H](Cc1c[nH]cn1)NC(=O)[C@@H]1CCC(=O)N1` [Example 4, [D-Phe^6, Npg7, desGly^10-ProNEt^9]LH-RH], the “total plasma testosterone (nmol/l) (m ± sem)” value is 67.9 ± 9.11 nmol/L in test [1] (with α-CD (100 mM solution)) and 30.1 ± 5.86 nmol/L in test [1] (setting [4]). Besides, the “total plasma LH (ng/ml) (m ± sem)” value in test [2] (with α-CD (100 mM solution)) was 16.1 ± 5.22 ng/mL; in test [2] (without α-CD) it was 1.4 ± 0.17 ng/mL.
For deslorelin, the “total plasma testosterone (nmol/l) (m ± sem)” value was “marked potency” in test [1] (with α-CD (100 mM solution)); 48.2 ± 7.29 nmol/L in test [1] (with α-CD (100 mM solution), listed as Deslorelin (α-CD)); 9.7 ± 2.41 nmol/L in test [1] (setting [4]); “inactive” in test [1] (without α-CD (standard aqueous vehicle), listed as deslorelin).
With triptorelin, the “total plasma testosterone (nmol/l) (m ± sem)” value worked out at 61.9 ± 6.01 nmol/L in test [1] (with α-CD (100 mM solution)) and 25.8 ± 3.14 nmol/L in test [1] (setting [4]). For the same compound, the figures for the “total plasma LH (ng/ml) (m ± sem)” value in test [2] (with α-CD (100 mM solution)) and in test [2] (without α-CD) were 10.1 ± 2.54 ng/mL and 1.4 ± 0.10 ng/mL, respectively.
In the same order, the values of [Npg^7]triptorelin [Example 5] are 52.1 ± 6.99 nmol/L, 15.8 ± 4.24 nmol/L, 3.2 ± 0.56 ng/mL and 1.4 ± 0.10 ng/mL.
Turning to `CCNC(=O)[C@@H]1CCCN1C(=O)[C@H](CCCNC(=N)N)NC(=O)[C@H](CC(C)(C)C)NC(=O)[C@@H](C)NC(=O)[C@H](Cc1ccc(O)cc1)NC(=O)[C@H](CO)NC(=O)[C@H](Cc1c[nH]c2ccccc12)NC(=O)[C@H](Cc1c[nH]cn1)NC(=O)[C@@H]1CCC(=O)N1` [Example 2, [D-Ala^6, Npg7, desGly^10-ProNEt^9]LH-RH], the “stimulation of testosterone secretion” value is on record as “did enhance” in test [1] (with 5% (51.4 mM) α-CD) and “maximal level” in test [1] (with 10% (103 mM) as well as 14% (144 mM) α-CD). Further, the “total plasma testosterone (nmol/l) (m ± sem)” value in test [1] (with α-CD (100 mM solution)) worked out at 72.8 ± 4.64 nmol/L; in test [1] (setting [4]) it was 23.0 ± 8.54 nmol/L. The “total plasma LH (ng/ml) (m ± sem)” value in test [2] (with α-CD (100 mM solution)) is 19.7 ± 3.70 ng/mL; in test [2] (without α-CD), 1.6 ± 0.14 ng/mL.
Take “[(S)spirolactam(Pro^6, Npg^7), desGly^10-ProNEt^9]LH-RH [Example 1]”: the figures for the “total plasma testosterone (nmol/l) (m ± sem)” value in test [1] (with α-CD (100 mM solution)) and in test [1] (setting [4]) were 58.0 ± 8.75 nmol/L and 40.1 ± 6.78 nmol/L, respectively. Further, the “total plasma LH (ng/ml) (m ± sem)” value in test [2] (with α-CD (100 mM solution)) was 7.1 ± 1.68 ng/mL; in test [2] (without α-CD) it was 1.5 ± 0.19 ng/mL.
As to goserelin, the “total plasma testosterone (nmol/l) (m ± sem)” value is 66.5 ± 6.19 nmol/L in test [1] (with α-CD (100 mM solution)) and 21.4 ± 5.99 nmol/L in test [1] (setting [4]).
As to `CCNC(=O)[C@@H]1CCCN1C(=O)[C@H](CCCNC(=N)N)NC(=O)[C@H](CC(C)C)NC(=O)[C@@H](C)NC(=O)[C@H](Cc1ccc(O)cc1)NC(=O)[C@H](CO)NC(=O)[C@H](Cc1c[nH]c2ccccc12)NC(=O)[C@H](Cc1c[nH]cn1)NC(=O)[C@@H]1CCC(=O)N1` [Example 6, [D-Ala^6, desGly^10-ProNet^9]LH-RH], the “total plasma testosterone (nmol/l) (m ± sem)” value in test [1] (with α-CD (100 mM solution)) was determined as 61.8 ± 5.10 nmol/L; in test [1] (setting [4]), 28.3 ± 4.56 nmol/L.
Turning to antide, in test [3] (combined with β- or γ-CD (10%), dose level of 400), the “influence of Beta- and γ-CD on the minimal activity of antide” value is “no influence”. Moreover, in test [3] (out of 22 animals, vehicle only, threshold dose of 400), the “animals showing inhibition of ovulation” value worked out at 3. In addition, the “n ovulations/ N treated rats” value in test [3] (setting [5]) was 6/8; in test [3] (setting [6]), 6/22; in test [3] (setting [7]), 2/8; in test [3] (setting [8]), 7/7; in test [3] (setting [9]), 7/7; in test [3] (setting [10]) it was 8/8. For the same compound, the “n ovulations/ N treated rats” value in test [3] (setting [11]) was 19/22; in test [3] (setting [12]), 5/8. In addition, the percentage of inhibition in test [3] (setting [5]) was 25%; in test [3] (setting [6]), 73%; in test [3] (setting [7]), 75%; in test [3] (setting [8]) it was 0%; in test [3] (setting [9]) it was 0%; in test [3] (setting [10]), 0%. Besides, the figures for the percentage of inhibition in test [3] (setting [11]) and in test [3] (setting [12]) were 14% and 44%, respectively. For the same compound, the “threshold effective dose by oral administration” value in test [3] (vehicle only (no cyclodextrin), inhibition of ovulation) is 400 µg/rat.
